Laboratory results taken from patent publication US20240180880A1, “METHODS OF USING EHMT2 INHIBITORS IN TREATING OR PREVENTING BLOOD DISORDERS” (Epizyme, Inc., priority 2017, published 2024).
Like-named read-outs stand apart in the source and are kept apart here.

Test system: 284 cell lines
Assay: cells
Conditions: Homo sapiens
Method: A screen of 284 cell lines to assess the antiproliferative effect of EHMT2 inhibition was conducted by treating cell lines in 384-well format with a half-log step dilutions of Compound 205 over 10 concentrations with a maximum concentration of 0.1% v/v DMSO. Cells were plated on Day 0 and treated with compound on Day 1. Culture medium was replaced on day 7 and cells redosed. After 10-day incubation, cells were fixed and stained with nuclear dye. Automated fluorescence microscopy was carried out using a Molecular Devices ImageXpress Micro XL high-content imager, and images were collected with a 4× objective. 16-bit TIFF images were acquired and analyzed with MetaXpress 5.1.0.41 software. Cell proliferation was measured by the fluorescence intensity of the incorporated nuclear dye. Cell count IC50 is the test compound concentration at 50% of maximal response of the untreated control.

**Q.** With `CNc1cc(C)nc(Nc2ccc(OC)c(OCCCN3CCCC3)c2)n1` [Compound 205] as the compound, how does the IC50 (NCI-H508, read-out: Cell Count IC50, NCI-H508, Colon) read?
**A.** Its IC50 is greater than 10 µM.

**Q.** And the IC50 (NCI-H520, read-out: Cell Count IC50, NCI-H520, Lung, NSCLC)?
**A.** The IC50 was greater than 10 µM.

**Q.** And the IC50 (NCI-H596, read-out: Cell Count IC50, NCI-H596, Lung, NSCLC)?
**A.** The IC50 was greater than 10 µM.

**Q.** What about the IC50 (NCI-H661, read-out: Cell Count IC50, NCI-H661, Lung, NSCLC) of the same compound?
**A.** The IC50 was 0.1 to 1 µM.

**Q.** And the IC50 (NCI-H747, read-out: Cell Count IC50, NCI-H747, Colon)?
**A.** The IC50 was 1 to 10 µM.

**Q.** What about the IC50 (NTERA-2-cl-D1, read-out: Cell Count IC50, NTERA-2 cl.D1, Testis) of the same compound?
**A.** Its IC50 is 1 to 10 µM.

**Q.** And the IC50 (OE19, read-out: Cell Count IC50, OE19, Head and Neck)?
**A.** Its IC50 is greater than 10 µM.

**Q.** And the IC50 (OE33, read-out: Cell Count IC50, OE33, Head and Neck)?
**A.** Its IC50 is greater than 10 µM.

**Q.** What about the IC50 (OVCAR-3, read-out: Cell Count IC50, OVCAR3, Female GU, Ovary) of the same compound?
**A.** The IC50 was greater than 10 µM.

**Q.** And the IC50 (PANC-1, read-out: Cell Count IC50, PANC-1, Pancreas)?
**A.** Its IC50 is 1 to 10 µM.

**Q.** What about the IC50 (PFSK-1, read-out: Cell Count IC50, PFSK-1, Central Nervous System, Glioma) of the same compound?
**A.** Its IC50 is greater than 10 µM.

**Q.** What about the IC50 (PSN1, read-out: Cell Count IC50, PSN-1, Pancreas) of the same compound?
**A.** The IC50 was 1 to 10 µM.

**Q.** What about the IC50 (RKOE6, read-out: Cell Count IC50, RKOE6, Colon) of the same compound?
**A.** Its IC50 is 1 to 10 µM.

**Q.** What about the IC50 (RL95-2, read-out: Cell Count IC50, RL95-2, Female GU, Uterus) of the same compound?
**A.** Its IC50 is greater than 10 µM.

**Q.** And the IC50 (RPMI-6666, read-out: Cell Count IC50, RPMI 6666, Hematopoietic, Lymphoma)?
**A.** Its IC50 is 0.1 to 1 µM.

**Q.** And the IC50 (RPMI-7951, read-out: Cell Count IC50, RPMI-7951, Skin, Melanoma)?
**A.** The IC50 was 1 to 10 µM.

**Q.** What about the IC50 (RPMI-8226, read-out: Cell Count IC50, RPMI 8226, Hematopoietic, Myeloma) of the same compound?
**A.** Its IC50 is 1 to 10 µM.

**Q.** And the IC50 (RS4-11, read-out: Cell Count IC50, RS4;11, Hematopoietic, Leukemia)?
**A.** Its IC50 is 1 to 10 µM.

**Q.** What about the IC50 (Raji, read-out: Cell Count IC50, Raji, Hematopoietic, Lymphoma) of the same compound?
**A.** The IC50 was greater than 10 µM.

**Q.** What about the IC50 (Ramos, read-out: Cell Count IC50, Ramos (RA 1), Hematopoietic, Lymphoma) of the same compound?
**A.** Its IC50 is 1 to 10 µM.

**Q.** What about the IC50 (SAOS-2, read-out: Cell Count IC50, SaOS2, Bone, Osteosarcoma) of the same compound?
**A.** The IC50 was 0.1 to 1 µM.

**Q.** What about the IC50 (SCC-4, read-out: Cell Count IC50, SCC-4, Head and Neck) of the same compound?
**A.** Its IC50 is greater than 10 µM.

**Q.** And the IC50 (SCC-9, read-out: Cell Count IC50, SCC-9, Head and Neck)?
**A.** Its IC50 is less than 0.01 µM.

**Q.** And the IC50 (SCC-25, read-out: Cell Count IC50, SCC-25, Head and Neck)?
**A.** The IC50 was less than 0.01 µM.

**Q.** What about the IC50 (SCaBER, read-out: Cell Count IC50, SCaBER, Bladder) of the same compound?
**A.** Its IC50 is 1 to 10 µM.

**Q.** What about the IC50 (SHP77, read-out: Cell Count IC50, SHP-77, Lung, SCLC) of the same compound?
**A.** Its IC50 is greater than 10 µM.

**Q.** And the IC50 (SJRH30, read-out: Cell Count IC50, SJRH30, Soft & Connective Tissue, Sarcoma)?
**A.** The IC50 was 1 to 10 µM.

**Q.** And the IC50 (SJSA-1, read-out: Cell Count IC50, SJSA1, Bone, Osteosarcoma)?
**A.** Its IC50 is 1 to 10 µM.

**Q.** And the IC50 (SK-BR-3, read-out: Cell Count IC50, SK-BR-3, Breast)?
**A.** Its IC50 is 1 to 10 µM.

**Q.** And the IC50 (SK-LMS-1, read-out: Cell Count IC50, SK-LMS-1, Soft & Connective Tissue, Sarcoma)?
**A.** Its IC50 is greater than 10 µM.

**Q.** And the IC50 (SK-MEL3, read-out: Cell Count IC50, SK-MEL-3, Skin, Melanoma)?
**A.** The IC50 was 1 to 10 µM.

**Q.** What about the IC50 (SK-MEL-1, read-out: Cell Count IC50, SK-MEL-1, Skin, Melanoma) of the same compound?
**A.** The IC50 was 1 to 10 µM.

**Q.** And the IC50 (SK-MEL-28, read-out: Cell Count IC50, SK-MEL-28, Skin, Melanoma)?
**A.** Its IC50 is 1 to 10 µM.

**Q.** What about the IC50 (SK-MES-1, read-out: Cell Count IC50, SKMES1, Lung, NSCLC) of the same compound?
**A.** The IC50 was 1 to 10 µM.

**Q.** What about the IC50 (SK-N-AS, read-out: Cell Count IC50, SK-N-AS, Central Nervous System, Neuroblastoma) of the same compound?
**A.** Its IC50 is 1 to 10 µM.

**Q.** What about the IC50 (SK-N-FI, read-out: Cell Count IC50, SK-N-FI, Central Nervous System, Neuroblastoma) of the same compound?
**A.** Its IC50 is greater than 10 µM.

**Q.** And the IC50 (SK-NEP-1, read-out: Cell Count IC50, SK-NEP-1, Kidney)?
**A.** The IC50 was greater than 10 µM.

**Q.** What about the IC50 (SK-OV-3, read-out: Cell Count IC50, SKOV3, Female GU, Ovary) of the same compound?
**A.** The IC50 was greater than 10 µM.

**Q.** What about the IC50 (SK-UT-1, read-out: Cell Count IC50, SK-UT-1, Soft & Connective Tissue, Sarcoma) of the same compound?
**A.** Its IC50 is greater than 10 µM.

**Q.** And the IC50 (SNB-19, read-out: Cell Count IC50, SNB-19, Central Nervous System, Glioma)?
**A.** Its IC50 is 1 to 10 µM.

**Q.** What about the IC50 (SNU1, read-out: Cell Count IC50, SNU-1, Stomach) of the same compound?
**A.** Its IC50 is greater than 10 µM.

**Q.** And the IC50 (SNU-5, read-out: Cell Count IC50, SNU-5, Stomach)?
**A.** Its IC50 is 1 to 10 µM.

**Q.** And the IC50 (SNU-16, read-out: Cell Count IC50, SNU-16, Stomach)?
**A.** Its IC50 is 1 to 10 µM.

**Q.** And the IC50 (SNU-423, read-out: Cell Count IC50, SNU-423, Liver)?
**A.** The IC50 was 1 to 10 µM.

**Q.** And the IC50 (SNU-C2B, read-out: Cell Count IC50, SNU-C2B, Colon)?
**A.** Its IC50 is 1 to 10 µM.

**Q.** And the IC50 (ST486, read-out: Cell Count IC50, ST486, Hematopoietic, Lymphoma)?
**A.** The IC50 was 1 to 10 µM.

**Q.** What about the IC50 (SU-DHL10, read-out: Cell Count IC50, SU-DHL-10, Hematopoietic, Lymphoma) of the same compound?
**A.** The IC50 was 1 to 10 µM.

**Q.** And the IC50 (SU-DHL-4, read-out: Cell Count IC50, SU-DHL-4, Hematopoietic, Lymphoma)?
**A.** The IC50 was 0.1 to 1 µM.

**Q.** What about the IC50 (SU-DHL-8, read-out: Cell Count IC50, SU-DHL-8, Hematopoietic, Lymphoma) of the same compound?
**A.** The IC50 was 1 to 10 µM.

**Q.** And the IC50 (SU.86.86, read-out: Cell Count IC50, SU.86.86, Pancreas)?
**A.** Its IC50 is greater than 10 µM.

**Q.** What about the IC50 (SUP-T1, read-out: Cell Count IC50, SUP-T1, Hematopoietic, Lymphoma) of the same compound?
**A.** The IC50 was 1 to 10 µM.

**Q.** And the IC50 (SW13, read-out: Cell Count IC50, SW-13, Endocrine, Adrenal gland)?
**A.** The IC50 was greater than 10 µM.

**Q.** And the IC50 (SW48, read-out: Cell Count IC50, SW48, Colon)?
**A.** The IC50 was 1 to 10 µM.

**Q.** And the IC50 (SW480, read-out: Cell Count IC50, SW480, Colon)?
**A.** The IC50 was 1 to 10 µM.

**Q.** And the IC50 (SW684, read-out: Cell Count IC50, SW684, Soft & Connective Tissue, Sarcoma)?
**A.** Its IC50 is 0.1 to 1 µM.

**Q.** What about the IC50 (SW837, read-out: Cell Count IC50, SW837, Colon) of the same compound?
**A.** The IC50 was 1 to 10 µM.

**Q.** What about the IC50 (SW872, read-out: Cell Count IC50, SW872, Soft & Connective Tissue, Sarcoma) of the same compound?
**A.** Its IC50 is 1 to 10 µM.

**Q.** And the IC50 (SW900, read-out: Cell Count IC50, SW900, Lung, SCLC)?
**A.** The IC50 was 1 to 10 µM.

**Q.** And the IC50 (SW948, read-out: Cell Count IC50, SW948, Colon)?
**A.** Its IC50 is greater than 10 µM.

**Q.** And the IC50 (SW 954, read-out: Cell Count IC50, SW954, Female GU, Vulva)?
**A.** Its IC50 is greater than 10 µM.

**Q.** And the IC50 (SW 962, read-out: Cell Count IC50, SW962, Female GU, Vulva)?
**A.** Its IC50 is greater than 10 µM.

**Q.** What about the IC50 (SW982, read-out: Cell Count IC50, SW982, Soft & Connective Tissue, Sarcoma) of the same compound?
**A.** The IC50 was greater than 10 µM.

**Q.** What about the IC50 (SW1088, read-out: Cell Count IC50, SW1088, Central Nervous System, Glioma) of the same compound?
**A.** Its IC50 is 1 to 10 µM.

**Q.** What about the IC50 (SW1353, read-out: Cell Count IC50, SW1353, Bone, Osteosarcoma) of the same compound?
**A.** The IC50 was greater than 10 µM.

**Q.** And the IC50 (SW1417, read-out: Cell Count IC50, SW1417, Colon)?
**A.** The IC50 was 1 to 10 µM.

**Q.** And the IC50 (SW1463, read-out: Cell Count IC50, SW1463, Colon)?
**A.** Its IC50 is 0.1 to 1 µM.

**Q.** And the IC50 (SW1783, read-out: Cell Count IC50, SW1783, Central Nervous System, Glioma)?
**A.** The IC50 was 1 to 10 µM.

**Q.** And the IC50 (SW-403, read-out: Cell Count IC50, SW403, Colon)?
**A.** Its IC50 is 1 to 10 µM.

**Q.** What about the IC50 (SW-620, read-out: Cell Count IC50, SW620, Colon) of the same compound?
**A.** The IC50 was 1 to 10 µM.

**Q.** And the IC50 (SiHa, read-out: Cell Count IC50, SiHa, Female GU, Cervix)?
**A.** The IC50 was 1 to 10 µM.

**Q.** And the IC50 (T47D, read-out: Cell Count IC50, T47D, Breast)?
**A.** Its IC50 is greater than 10 µM.
